The test system of experiment [1] is inducing peptide construct. The experiment in a line: ELISA of serum IgG antibody to the inducing (homologous) peptide construct in immunized rats. Particulars: for IgG antibody levels to GGY: pre-infection sera. It counts as in vivo, Sprague Dawley rats. As to the method: (§1) Immunogenicity of Peptides: Sprague Dawley CD strain 43 day-old male rats (Charles River Laboratories) were used for injection. Six groups of 4-5 rats were injected subcutaneously in the vicinity of the salivary glands with 50 μg each of GGY, AND, SAND or CAT peptide constructs, 10 μg of GTF, or sham-immunized with buffer alone. The initial injection included complete Freund adjuvant (CFA; Difco); two subsequent injections at 21-day intervals included incomplete Freund adjuvant. Animals were bled prior to injection and 14-21 days after each injection. Serum from coagulated and centrifuged blood was stored frozen at −20° C. until use.
(§2) ELISA: Serum IgG and salivary IgA antibodies were tested by enzyme-linked immunosorbent assay (ELISA). Polystyrene microtiter plates (Flow Laboratories) were coated with […] of each peptide construct or 0.5 μg of S. sobrinus GTF. Antibody activity was then measured by incubation with 1:100 to 1:10^6 dilutions of sera, or 1:4 to 1:32 dilutions of saliva. Plates were then developed for IgG antibody rabbit anti-rat IgG followed in sequence by alkaline phosphatase goat anti-rabbit IgG (Biosource Inc.) and p-nitrophenylphosphate (Sigma). A mouse monoclonal reagent to rat α chain (Zymed, South San Francisco, Calif.) was used with biotinylated goat anti-mouse IgG (TAGO, Inc., Burlingame, Calif.) and avidin-alkaline phosphatase (Cappel) to reveal levels of salivary IgA antibody to peptides. Reactivity was recorded as absorbance (A405 nm) in a micro plate reader (Biotek Instruments). Data are reported as absorbance (A405 nm), reciprocal titer, or as ELISA units (EU) which were calculated relative to the levels of appropriate reference sera or salivas from Sprague Dawley rats thrice immunized with the respective peptide construct. Dilutions of 1:12,800 and 1:6,400 (A405 nm approximately 1.0) were considered 100 EU for serum IgG to the GGY and AND constructs, respectively. Dilutions of 1:32 were considered 100 EU for salivary IgA to both GGY and AND constructs.
(§3) Two experiments were performed. Groups (n=11-12) of 23-26 day-old rats were subcutaneously (sc) injected in the salivary gland vicinity with (experiment 1) GGY (50 μg), AND (50 μg) or GTF(10 μg), or phosphate buffered saline (control animals), or (experiment 2) GGY (50 ;μg) or PBS. Each antigen was incorporated with complete Freund adjuvant in both experiments. Eight (experiment 1) or 14 (experiment 2) days later, rats were reinjected with PBS or with the same antigen and dose in incomplete Freund adjuvant. Six (experiment 1) or 12 (experiment 2) days after the second injection, animals were bled from the tail vein, and saliva was collected after injection of pilocarpine (1.0 mg/100 g body weight). Fourteen (experiment 1) or 11 (experiment 2) days after the second injection, all rats were orally infected with approximately 10^8 S. mutans for 3 consecutive days. Both experiments were terminated 63 days after initial infection.
(§4) Two experiments were performed to measure the effect of immunization with the eight-branched GGY and AND peptide constructs on experimental dental caries in the Sprague-Dawley rat. In the first experiment, groups of rats were immunized with GGY or AND peptide constructs. In the second experiment groups of rats were immunized only with the GGY peptide construct. Pre-infection sera and salivas were collected for antibody measurement in 39 day old rats in experiment 1 (6 days after the second injection) and 51 day old rats in experiment 2 (12 days after the second injection). In the GGY-immunized rat groups, IgG antibody levels to GGY (experiment 1=21.9+17.8 EU; experiment 2=108.0±4.0 EU) were elevated above those of the sham-immunized groups (experiment 1=1.7±0.2 EU; experiment 2=4.0±3.0 EU) in both experiments and reached statistical significance (p<0.002) in experiment 2.
A general note: In an ELISA, binding on a coated surface is turned into a signal by an enzyme label.

Experiment [2] concerns inducing peptide construct. The experiment in a line: ELISA of salivary IgA antibody to the inducing (homologous) peptide construct in immunized rats. It counts as in vivo, Sprague Dawley rats. Particulars: for rats with significant levels of salivary IgA antibody: GGY- and AND-injected rats counted together; for Salivary IgA antibody levels to GGY: pre-infection saliva. The procedure: as §1, §2, §3, §4

Experiment [3] relates to S. sobrinus GTF. As to the kind of experiment: ELISA of serum IgG antibody reacting with intact S. sobrinus GTF. It counts as in vivo. Particulars: 63 day sera, n=4-5 per group; FIG. 3.
Description: (§5) Glucosyltransferases: Glucosyltransferases (GTF) from S. sobrinus strain 6715 were purified from culture supernatants after bacterial growth in glucose-containing defined media, as described in Taubman et al. (J. Oral Pathol. 17:466-470 (1988)). Enzymes were separated from other culture supernatant proteins by affinity chromatography on Sephadex G-100 (Pharmacia Fine Chemicals), using 6M guanidine HCl as the eluting solvent. GTFs were then obtained from the guanidine HCl eluate by FPLC chromatography on Superose 6 (Pharmacia) using 6M guanidine for elution. GTF preparations contained a mixture of GTF-I, GTF-Sd, and GTF-Si.
as §1, §2

Experiment [4] concerns S. sobrinus GTF. The experiment in a line: Antibody inhibition of glucan synthesis (filter assay, 14C glucose incorporation into water-insoluble glucan). Format: biochemical, S. sobrinus strain 6715.
Description: as §5
Antibody Inhibition of Glucan Synthesis: Selected rat sera were evaluated for their ability to inhibit glucan synthesis catalyzed by S. sobrinus GTF, using a filter assay. Ten μl volumes of sera (1:100 dilutions in 0.02M sodium phosphate buffered saline and 0.02% sodium azide [PBSA], pH 6.5) were preincubated with the respective GTF for 1 hour at 37° C. in a total volume of 0.04 ml PBSA. Then 1.7 mg sucrose, 44 nCi of [^14C-glucose]-sucrose (approximately 100,000 cpm) were added in 0.2 ml PESA in the presence of 37 μg of dextran T10 (Pharmacia). Incubation proceeded for 18 hours at 37° C., after which water-insoluble glucan was collected on Whatman GF/F glass fiber filters, washed with PBSA, and radioactivity determined as described in Smith et al. (Infect. Immunity 62:5470-5476 (1994)).

For a further experiment, the system named is anti-GGY serum. As to the kind of experiment: Epitope mapping by ELISA inhibition, anti-GGY serum on GGY-coated plates. It counts as binding, rat. Particulars: anti-GGY serum preincubated with heptamer or intact peptide; FIG. 8. The procedure: Epitope Mapping: B cell epitopes were mapped on the GGY and AND peptides by an ELISA inhibition technique. Anti-GGY or anti-AND sera were preincubated with 13 separate heptamers representing the incremental peptide sequence of the respective peptide, or with intact peptide, followed by the conventional ELISA with intact peptide-coated plates. B cell epitopes were indicated by a significant reduction in absorbance.

With GGYEFLLANDVDNSNPVVQ, the “responding rats (serum IgG)” value in experiment [1] (immunization began on day 43 of life, bled 21 days later (day 64 of life), immunogenicity experiment) is 4/4. The “immunogenicity (percentage of animals responding and titer of responding sera)” value in experiment [1] (immunogenicity experiment, FIG. 1) is “at least as high as observed for the positive control CAT peptide”. In addition, the “effect of subsequent immunization on serum IgG titers” value in experiment [1] (immunogenicity experiment, day 21 (one injection) vs day 63 (three injections)) is listed as “sufficient to induce maximal serum IgG antibody to GGY”. In addition, the “serum IgG antibody to the inciting antigen after the first injection” value in experiment [1] (immunogenicity experiment, rats 43 days old at start, 50 μg sc in CFA, day 21) is given as “induced serum IgG antibody to the inciting antigen after the first injection in all rats”. Moreover, the “IgG antibody levels to GGY” value in experiment [1] (protection experiment 1, 39 day old rats, 6 days after the second injection) is recorded as 21.9 ± 17.8 EU; in experiment [1] (protection experiment 2, 51 day old rats, 12 days after the second injection, p<0.002 vs sham), 108.0±4.0 EU. For the same sequence, the “levels of serum IgG antibody (in words)” value in experiment [1] (protection experiment 1, weanling rats, two injections eight days apart, bled 14 days after onset (day 39 of life)) was “modest levels”; in experiment [1] (protection experiment 2, weanling rats, two injections 14 days apart, bled day 51 of life), “significantly elevated levels of serum IgG antibody”. Besides, in experiment [1] (protection experiment 2, weanling rats, two injections 14 days apart, bled 26 days after onset (day 51 of life)), the “positively responding rats (serum IgG)” value is 8/11. In addition, the “rats with significant levels of salivary IgA antibody” value in experiment [2] (day 21 (one injection)) is on record as 7/9; in experiment [2] (day 63 (three injections)) it was 8/9. Further, the “Salivary IgA antibody levels to GGY” value is on record as 5.0±2.0 EU in experiment [2] (protection experiment 1, 39 day old rats) and 11.7±4.8 EU in experiment [2] (protection experiment 2, 51 day old rats). Besides, the “IgG antibody reactivity with intact S. sobrinus GTF” value in the experiment on S. sobrinus GTF [3] is “significant reactivity with GTF”. For the same sequence, in the experiment with S. sobrinus GTF [4] (63 day sera from injected rats, AND p<0.01, FIG. 5), the “inhibition of formation of water-insoluble glucan from sucrose by S. sobrinus GTF (in words)” value is recorded as “more variable”. The “inhibition of GTF activity” value in the experiment with S. sobrinus GTF [4] (one rat serum, 63 day, relative to mean of sham sera) is reported as 35%. In addition, the “inhibition of GGY antibody binding to intact peptide-coated plates” value with anti-GGY serum is “completely inhibited”.

The values are drawn from patent US20010048926A1, “SYNTHETIC PEPTIDE VACCINES FOR DENTAL CARIES” (priority 1992, published 2001).
